# In US20240409585A1, “MACROCYCLIC IMMUNOMODULATORS” (priority 2021, published 2024):
# Bridge positions count the residues as written; N and C are the ends. Square brackets hold non-standard residues; d marks the D form. Peptide text beside a SMILES is read from it. * marks the point of attachment. ξ: configuration not given here. Phe(4-COOH) = N[C@@H](Cc1ccc(C(=O)O)cc1)C(=O)O; Bip = N[C@@H](Cc1ccc(-c2ccccc2)cc1)C(=O)O; Val(3-OH) = CC(C)(O)[C@H](N)C(=O)O; Cha = N[C@@H](CC1CCCCC1)C(=O)O; Ile(3ξ) = CCC(C)[C@H](N)C(=O)O; Carboxymethyl = O=C(O)C*; NMeA = CN[C@@H](C)C(=O)O; Pra = C#CC[C@H](N)C(=O)O; Dab = NCC[C@H](N)C(=O)O
# Biological target: T1, PE-labeled human PD-L1-Ig binding to Jurkat cell line over-expressing human PD-1 (Jurkat-PD-1) (Homo sapiens, UniProt Q15116)
# T1 construct: expressed in transfected cells; host or cells: Jurkat
# Assay: Jurkat-PD-1 Cell Binding High-Content Screening Assay (CBA): Method 1
# Conditions: Jurkat-hPD-1 cells, PE-labeled PD-L1-Ig 20 nM final; read-out: Jurkat HPDL1 PD1 IC50 (uM) (Method 1)
# T1 sequence (Q15116 25-288): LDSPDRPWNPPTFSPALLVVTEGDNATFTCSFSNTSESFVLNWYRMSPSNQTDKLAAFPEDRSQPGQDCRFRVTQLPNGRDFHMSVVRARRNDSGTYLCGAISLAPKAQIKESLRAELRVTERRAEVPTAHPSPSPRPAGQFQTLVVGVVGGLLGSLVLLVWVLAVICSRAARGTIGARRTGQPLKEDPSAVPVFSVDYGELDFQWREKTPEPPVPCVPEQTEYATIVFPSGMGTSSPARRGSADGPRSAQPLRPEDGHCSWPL
row,Structure (SMILES),IC50 [µM]
1,CCC(C)[C@@H]1NC(=O)[C@H](Cc2ccc(-c3ccccc3)cc2)NC(=O)[C@H](CC(C)C)NC(=O)[C@H](Cc2c[nH]c3ccccc23)NC(=O)[C@H](CC(=O)O)NC(=O)[C@H](Cc2ccc(C(=O)O)cc2)NC(=O)[C@H](Cc2ccc(OCC(=O)O)cc2)NC(=O)CSC[C@@H](C(=O)N[C@@H](CC(N)=O)C(N)=O)NC(=O)[C@H]([C@@H](C)O)NC(=O)[C@H](C(C)C)NC(=O)[C@H](CC2CCCCC2)NC(=O)[C@H](CCN)NC(=O)[C@@H](CC(C)C)NC(=O)[C@H](C)N(C)C1=O (stereo partly drawn) [Compound 1919] ({CH2CO}-Y(Carboxymethyl)[Phe(4-COOH)]DWL[Bip][Ile(3ξ)][NMeA][dL][Dab][Cha]VTCN-NH2; thioether N-14),0.03
2,CCC(C)[C@@H]1NC(=O)[C@H](Cc2ccc(-c3ccccc3)cc2)NC(=O)[C@H](CC(C)C)NC(=O)[C@H](Cc2c[nH]c3ccccc23)NC(=O)[C@H](CC(=O)O)NC(=O)[C@H](Cc2ccc(C(=O)O)cc2)NC(=O)[C@H](Cc2ccc(OCC(=O)O)cc2)NC(=O)CSC[C@@H](C(=O)N[C@@H](CC(N)=O)C(N)=O)NC(=O)[C@H]([C@@H](C)O)NC(=O)[C@H](C(C)C)NC(=O)[C@H](CC2CCCCC2)NC(=O)[C@H](CCN)NC(=O)[C@@H](CC(C)C)NC(=O)[C@H](C)N(C)C1=O (stereo partly drawn) [Compound 1922] ({CH2CO}-Y(Carboxymethyl)[Phe(4-COOH)]DWL[Bip][Ile(3ξ)][NMeA][dL][Dab][Cha]VTCN-NH2; thioether N-14),0.04
3,CCC(C)[C@@H]1NC(=O)[C@H](Cc2ccc(-c3ccccc3)cc2)NC(=O)[C@H](CC(C)C)NC(=O)[C@H](Cc2c[nH]c3ccccc23)NC(=O)[C@H](CC(=O)O)NC(=O)[C@H](Cc2ccc(C(=O)O)cc2)NC(=O)[C@H](Cc2ccc(OCC(=O)O)cc2)NC(=O)CSC[C@@H](C(=O)N[C@@H](CC(N)=O)C(N)=O)NC(=O)[C@H](CCC(=O)O)NC(=O)[C@H](C(C)C)NC(=O)[C@H](CC2CCCCC2)NC(=O)[C@H](CCN)NC(=O)[C@@H](CC(C)C)NC(=O)[C@H](C)N(C)C1=O (stereo partly drawn) [Compound 1924] ({CH2CO}-Y(Carboxymethyl)[Phe(4-COOH)]DWL[Bip][Ile(3ξ)][NMeA][dL][Dab][Cha]VECN-NH2; thioether N-14),0.04
4,CCC(C)[C@@H]1NC(=O)[C@H](Cc2ccc(-c3ccccc3)cc2)NC(=O)[C@H](CC(C)C)NC(=O)[C@H](Cc2c[nH]c3ccccc23)NC(=O)[C@H](CC(=O)O)NC(=O)[C@H](Cc2ccc(C(=O)O)cc2)NC(=O)[C@H](Cc2ccc(OCC(=O)O)cc2)NC(=O)CSC[C@@H](C(=O)N[C@@H](CCN)C(N)=O)NC(=O)[C@H](CCC(N)=O)NC(=O)[C@H](C(C)C)NC(=O)[C@H](CC2CCCCC2)NC(=O)[C@H](CCN)NC(=O)[C@@H](CC(C)C)NC(=O)[C@H](C)N(C)C1=O (stereo partly drawn) [Compound 1927] ({CH2CO}-Y(Carboxymethyl)[Phe(4-COOH)]DWL[Bip][Ile(3ξ)][NMeA][dL][Dab][Cha]VQC[Dab]-NH2; thioether N-14),0.01
5,CCC(C)[C@@H]1NC(=O)[C@H](Cc2ccc(-c3ccccc3)cc2)NC(=O)[C@H](CC(C)C)NC(=O)[C@H](Cc2c[nH]c3ccccc23)NC(=O)[C@H](CC(=O)O)NC(=O)[C@H](Cc2ccc(C(=O)O)cc2)NC(=O)[C@H](Cc2ccc(OCC(=O)O)cc2)NC(=O)CSC[C@@H](C(=O)N[C@@H](CO)C(N)=O)NC(=O)[C@H]([C@@H](C)O)NC(=O)[C@H](C(C)C)NC(=O)[C@H](CC2CCCCC2)NC(=O)[C@H](CCN)NC(=O)[C@@H](CC(C)C)NC(=O)[C@H](C)N(C)C1=O (stereo partly drawn) [Compound 1928] ({CH2CO}-Y(Carboxymethyl)[Phe(4-COOH)]DWL[Bip][Ile(3ξ)][NMeA][dL][Dab][Cha]VTCS-NH2; thioether N-14),0.02
6,CCC(C)[C@@H]1NC(=O)[C@H](Cc2ccc(-c3ccccc3)cc2)NC(=O)[C@H](CC(C)C)NC(=O)[C@H](Cc2c[nH]c3ccccc23)NC(=O)[C@H](CC(=O)O)NC(=O)[C@H](Cc2ccc(C(=O)O)cc2)NC(=O)[C@H](Cc2ccc(OCC(=O)O)cc2)NC(=O)CSC[C@@H](C(=O)N[C@@H](CO)C(N)=O)NC(=O)[C@H](CCC(=O)O)NC(=O)[C@H](C(C)C)NC(=O)[C@H](CC2CCCCC2)NC(=O)[C@H](CCN)NC(=O)[C@@H](CC(C)C)NC(=O)[C@H](C)N(C)C1=O (stereo partly drawn) [Compound 1930] ({CH2CO}-Y(Carboxymethyl)[Phe(4-COOH)]DWL[Bip][Ile(3ξ)][NMeA][dL][Dab][Cha]VECS-NH2; thioether N-14),0.02
7,C#CC[C@H](NC(=O)CNC(=O)[C@@H]1CSCC(=O)N[C@@H](Cc2ccc(OCC(=O)O)cc2)C(=O)N[C@@H](Cc2ccc(C(=O)O)cc2)C(=O)N[C@@H](CC(=O)O)C(=O)N[C@@H](Cc2c[nH]c3ccccc23)C(=O)N[C@@H](CC(C)C)C(=O)N[C@@H](Cc2ccc(-c3ccccc3)cc2)C(=O)N[C@@H](C(C)C)C(=O)N(C)[C@@H](C)C(=O)N[C@H](CC(C)C)C(=O)N[C@@H](CCN)C(=O)N[C@@H](CC2CCCCC2)C(=O)N[C@@H](C(C)C)C(=O)N[C@@H](CO)C(=O)N1)C(N)=O [Compound 1932] ({CH2CO}-Y(Carboxymethyl)[Phe(4-COOH)]DWL[Bip]V[NMeA][dL][Dab][Cha]VSCG[Pra]-NH2; thioether N-14),0.02
8,C#CC[C@H](NC(=O)CNC(=O)[C@@H]1CSCC(=O)N[C@@H](Cc2ccc(OCC(=O)O)cc2)C(=O)N[C@@H](Cc2ccc(C(=O)O)cc2)C(=O)N[C@@H](CC(=O)O)C(=O)N[C@@H](Cc2c[nH]c3ccccc23)C(=O)N[C@@H](CC(C)C)C(=O)N[C@@H](Cc2ccc(-c3ccccc3)cc2)C(=O)N[C@@H](C(C)C)C(=O)N(C)[C@@H](C)C(=O)N[C@H](CC(C)C)C(=O)N[C@@H](CCN)C(=O)N[C@@H](CC2CCCCC2)C(=O)N[C@@H](C(C)(C)O)C(=O)N[C@@H](CO)C(=O)N1)C(N)=O [Compound 1933] ({CH2CO}-Y(Carboxymethyl)[Phe(4-COOH)]DWL[Bip]V[NMeA][dL][Dab][Cha][Val(3-OH)]SCG[Pra]-NH2; thioether N-14),0.01

# Continued by falling IC50, values first:
row,IC50 [µM],Structure (SMILES)
1,0.03,CCC(C)[C@@H]1NC(=O)[C@H](Cc2ccc(-c3ccccc3)cc2)NC(=O)[C@H](CC(C)C)NC(=O)[C@H](Cc2c[nH]c3ccccc23)NC(=O)[C@H](CC(=O)O)NC(=O)[C@H](Cc2ccc(C(=O)O)cc2)NC(=O)[C@H](Cc2ccc(OCC(=O)O)cc2)NC(=O)CSC[C@@H](C(=O)N[C@@H](CC(N)=O)C(N)=O)NC(=O)[C@H](CCC(N)=O)NC(=O)[C@H](C(C)C)NC(=O)[C@H](CC2CCCCC2)NC(=O)[C@H](CCN)NC(=O)[C@@H](CC(C)C)NC(=O)[C@H](C)N(C)C1=O (stereo partly drawn) [Compound 1925] ({CH2CO}-Y(Carboxymethyl)[Phe(4-COOH)]DWL[Bip][Ile(3ξ)][NMeA][dL][Dab][Cha]VQCN-NH2; thioether N-14)
2,0.02,CCC(C)[C@@H]1NC(=O)[C@H](Cc2ccc(-c3ccccc3)cc2)NC(=O)[C@H](CC(C)C)NC(=O)[C@H](Cc2c[nH]c3ccccc23)NC(=O)[C@H](CC(=O)O)NC(=O)[C@H](Cc2ccc(C(=O)O)cc2)NC(=O)[C@H](Cc2ccc(OCC(=O)O)cc2)NC(=O)CSC[C@@H](C(=O)N[C@@H](CC(N)=O)C(N)=O)NC(=O)[C@H](CO)NC(=O)[C@H](C(C)C)NC(=O)[C@H](CC2CCCCC2)NC(=O)[C@H](CCN)NC(=O)[C@@H](CC(C)C)NC(=O)[C@H](C)N(C)C1=O (stereo partly drawn) [Compound 1923] ({CH2CO}-Y(Carboxymethyl)[Phe(4-COOH)]DWL[Bip][Ile(3ξ)][NMeA][dL][Dab][Cha]VSCN-NH2; thioether N-14)
3,0.02,CCC(C)[C@@H]1NC(=O)[C@H](Cc2ccc(-c3ccccc3)cc2)NC(=O)[C@H](CC(C)C)NC(=O)[C@H](Cc2c[nH]c3ccccc23)NC(=O)[C@H](CC(=O)O)NC(=O)[C@H](Cc2ccc(C(=O)O)cc2)NC(=O)[C@H](Cc2ccc(OCC(=O)O)cc2)NC(=O)CSC[C@@H](C(=O)N[C@@H](CO)C(N)=O)NC(=O)[C@H](CO)NC(=O)[C@H](C(C)C)NC(=O)[C@H](CC2CCCCC2)NC(=O)[C@H](CCN)NC(=O)[C@@H](CC(C)C)NC(=O)[C@H](C)N(C)C1=O (stereo partly drawn) [Compound 1929] ({CH2CO}-Y(Carboxymethyl)[Phe(4-COOH)]DWL[Bip][Ile(3ξ)][NMeA][dL][Dab][Cha]VSCS-NH2; thioether N-14)
4,0.02,CCC(C)[C@@H]1NC(=O)[C@H](Cc2ccc(-c3ccccc3)cc2)NC(=O)[C@H](CC(C)C)NC(=O)[C@H](Cc2c[nH]c3ccccc23)NC(=O)[C@H](CC(=O)O)NC(=O)[C@H](Cc2ccc(C(=O)O)cc2)NC(=O)[C@H](Cc2ccc(OCC(=O)O)cc2)NC(=O)CSC[C@@H](C(=O)N[C@@H](CO)C(N)=O)NC(=O)[C@H](CCC(N)=O)NC(=O)[C@H](C(C)C)NC(=O)[C@H](CC2CCCCC2)NC(=O)[C@H](CCN)NC(=O)[C@@H](CC(C)C)NC(=O)[C@H](C)N(C)C1=O (stereo partly drawn) [Compound 1931] ({CH2CO}-Y(Carboxymethyl)[Phe(4-COOH)]DWL[Bip][Ile(3ξ)][NMeA][dL][Dab][Cha]VQCS-NH2; thioether N-14)
5,0.01,CCC(C)[C@@H]1NC(=O)[C@H](Cc2ccc(-c3ccccc3)cc2)NC(=O)[C@H](CC(C)C)NC(=O)[C@H](Cc2c[nH]c3ccccc23)NC(=O)[C@H](CC(=O)O)NC(=O)[C@H](Cc2ccc(C(=O)O)cc2)NC(=O)[C@H](Cc2ccc(OCC(=O)O)cc2)NC(=O)CSC[C@@H](C(=O)N[C@@H](CC(N)=O)C(N)=O)NC(=O)[C@H](CCC(=O)O)NC(=O)[C@H](C(C)C)NC(=O)[C@H](CC2CCCCC2)NC(=O)[C@H](CCN)NC(=O)[C@@H](CC(C)C)NC(=O)[C@H](C)N(C)C1=O (stereo partly drawn) [Compound 1921] ({CH2CO}-Y(Carboxymethyl)[Phe(4-COOH)]DWL[Bip][Ile(3ξ)][NMeA][dL][Dab][Cha]VECN-NH2; thioether N-14)
6,0.01,CCC(C)[C@@H]1NC(=O)[C@H](Cc2ccc(-c3ccccc3)cc2)NC(=O)[C@H](CC(C)C)NC(=O)[C@H](Cc2c[nH]c3ccccc23)NC(=O)[C@H](CC(=O)O)NC(=O)[C@H](Cc2ccc(C(=O)O)cc2)NC(=O)[C@H](Cc2ccc(OCC(=O)O)cc2)NC(=O)CSC[C@@H](C(=O)N[C@@H](CCN)C(N)=O)NC(=O)[C@H]([C@@H](C)O)NC(=O)[C@H](C(C)C)NC(=O)[C@H](CC2CCCCC2)NC(=O)[C@H](CCN)NC(=O)[C@@H](CC(C)C)NC(=O)[C@H](C)N(C)C1=O (stereo partly drawn) [Compound 1926] ({CH2CO}-Y(Carboxymethyl)[Phe(4-COOH)]DWL[Bip][Ile(3ξ)][NMeA][dL][Dab][Cha]VTC[Dab]-NH2; thioether N-14)
